Test results: PMC7546004, “Targeting BCL10 by small peptides for the treatment of B cell lymphoma” (Theranostics, 2020)
Square brackets hold non-standard residues; d marks the D form. Peptide text beside a SMILES is read from it.

Legend:
MBP-BCL10 = target: T1, MBP-BCL10 (Homo sapiens, UniProt O95999); experiment: Co-immunoprecipitation of peptide with MBP-BCL10; type: binding; details: biotinylated peptide, streptavidin beads, 4 °C
T1 construct: made in house
Method: (§1) MBP-Bcl10 was expressed and purified as previously described {Qiao, 2013 #85}. Purified
(§2) mM NaCl, 1% NP-40) at 4 °C for 1 hour, followed by addition of 5% BSA blocked S t re ptavidin (SAV)
(§3) Immunoprecipitant were washed 5 times with IP buffer and separated by SDS-PA G E . […]
(§4) hActin- F: 5’-[…]-3’
(§5) hIL6-R: 5’- […]-3 ’.
(§6) hBcl10-F: 5’-[…] TAGAAA-3’

DLBCL cell lines = type: cell-based; details: Figure 6D and Figure S7D
From the text: (§7) GraphPad Prism software was used to determine GI50 values.

HBL1 cells [1] = type: cell-based
From the text: as §7

HBL1 cells [2] = experiment: Intracellular pharmacokinetics, BCL10-P4 versus DRI-BCL10-P4
Method: as §1, §2, §3, §4, §5, §6
hBcl10-R: 5’-[…] T-3’
1x105 HBL1, TMD8, OCl-LY 1 , OCl-LY 1 , U2932, MD901 or RCK8 cells were seeded in 12-well plate
wa sh e d and lysed with RIPA buffer.
immunoblotting with Streptavidin (Cell signaling, cat. #3999S). […]

TMD8 and SU-DHL4 cells [3] = experiment: Apoptosis (annexin V / PI staining); type: cell-based; details: annexin V+/PI- plus annexin V+/PI+, 24 h; two independent experiments
Method: ([…]); shBcl10 ([…] TGT […]). Lentivirus production using […]
selected with puromycin (Invitrogen, A1113803) for 2 weeks. Log phase growing cells were seeded […]
The number cells were measured by flow […]
Cells were harvested and RNA was extracted and quantified. Synthesis of cDNA was performed […]
QuantStudio 6 Flex (Applied Biosystems). RNA was normalized by β-Actin or GAPDH mRNA. The following quantitative PCR primers were used: […]
hGAPDH-F: 5′-[…] T […]- 3’ […]
hGAPDH-R: 5’-TACT T TAT […]-3’ […]
hActin- F: 5’-[…]-3’ […]
hActin- R: 5’-TC A […]-3’ […]
hIL10- F: 5’-GGT […] TGTCTGA-3’ […]
hIL10- R: 5’-AGGGAGT […]-3’ […]
hIL6-R: 5’- […]-3 ’. […]
hBcl10-F: 5’-[…] TAGAAA-3’ […]
hBcl10-R: 5’-[…] T-3’ […]
wa sh e d and lysed with RIPA buffer. Biotinylated BCL10 -P4 in cells were determined by immunoblotting with Streptavidin (Cell signaling, cat. #3999S).
Apoptosis and cell cycle:
1:100 dilution for 15 min at room temperature in the dark. Signals from FL1 and FL3 channels were collected by MACSQuant analyzer and data were analyzed using FloJo (Ashland, OR). […]
For cell cycle analysis, cells were washed twice with cold PBS and fixed in 70% ethanol overnight at 4°C. […] DNA content was measured by BD LSRII flow cytometer and data were analyzed in FloJo. […]
All extracts were treated with DNase in column during RNA purification. RNA integrity was determined on an Agilent 2100 Bioanalyzer (Agilent Technologies, SantaClara, CA). […]

TMD8 and SU-DHL4 cells [4] = experiment: Cell cycle analysis (PI, flow cytometry); type: cell-based; details: 5 μM or 10 μM, 24 h; two independent experiments
Method: For cell cycle analysis, cells were washed twice with cold PBS and fixed in 70% ethanol overnight at 4°C. Fixed cells were collected at 1800 rpm for 10 min and stained with PBS containing PI and DNase-free RNase A (Sigma-Aldrich) for 1h at room temperature in the dark. DNA content was measured by BD LSRII flow cytometer and data were analyzed in FloJo. […]
Committee of Changhai Hospital, the Second Military Medical University.
Immunohistochemistry (IHC)
Formalin-fixed paraffin -embedded tumor xenografts were sectioned, dewaxed and submitted to antigen retrieval. The anti- Ki67 (proteintech, 27309-1) antibody was used at a 1:500 dilution.
Biotin-conjugated secondary antibodies (MXB biotechnologies, KIT-9710) were used. Then avidin/biotin peroxidase (MXB biotechnologies, KIT-9710) was applied to the slides. Color was developed with diaminobenzoate chromogen peroxidase substrate (MXB biotechnologies, MAX007TM) and counterstained with […] (MXB biotechnologies, MAX007TM). Pictures were obtained using NanoZoomer-S60 microscope ([…]).

T1 sequence (O95999 whole entry): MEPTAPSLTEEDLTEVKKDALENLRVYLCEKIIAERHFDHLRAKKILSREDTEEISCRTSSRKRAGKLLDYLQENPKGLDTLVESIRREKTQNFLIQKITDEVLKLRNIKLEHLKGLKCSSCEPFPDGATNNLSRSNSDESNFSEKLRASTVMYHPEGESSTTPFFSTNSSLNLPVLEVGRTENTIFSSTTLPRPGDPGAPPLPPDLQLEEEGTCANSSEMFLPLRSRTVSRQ

Structure (SMILES): CC[C@@H](C)[C@@H](NC(=O)[C@@H](CCCCN)NC(=O)[C@H](NC(=O)[C@@H](Cc1c[nH]c2ccccc12)NC(=O)[C@@H](Cc1ccccc1)NC(=O)[C@@H](CCC(N)=O)NC(=O)[C@@H](CC(N)=O)NC(=O)[C@@H](CCCNC(=N)N)NC(=O)[C@@H](CCCNC(=N)N)NC(=O)[C@@H](CCSC)NC(=O)[C@@H](CCCCN)NC(=O)[C@@H](Cc1c[nH]c2ccccc12)NC(=O)[C@@H](CCCCN)NC(=O)[C@@H](CCCCN)NC(=O)[C@@H](CCCNC(=N)N)NC(=O)[C@H](NC(=O)[C@@H](CO)NC(=O)[C@@H](CO)NC(=O)[C@@H](CCCNC(=N)N)NC(=O)[C@@H](CCCCN)NC(=O)[C@@H](CCCNC(=N)N)NC(=O)[C@@H](C)NC(=O)CNC(=O)[C@@H](CCCCN)NC(=O)[C@@H](CC(C)C)NC(=O)[C@@H](CC(C)C)NC(=O)[C@@H](CC(=O)O)NC(=O)[C@@H](Cc1ccc(O)cc1)NC(=O)[C@@H](CC(C)C)NC(=O)[C@@H](CCC(N)=O)NC(=O)[C@H](N)CCC(=O)O)[C@H](C)O)[C@H](C)CC)C(=O)N[C@H](CCC(N)=O)C(=O)N[C@H](CCCNC(=N)N)C(=O)N[C@H](CC(=O)O)C(=O)O [DRI-BCL10-P4] (H-[dE][dQ][dL][dY][dD][dL][dL][dK]G[dA][dR][dK][dR][dS][dS][dT][dR][dK][dK][dW][dK][dM][dR][dR][dN][dQ][dF][dW][dI][dK][dI][dQ][dR][dD]-OH)
- interaction with MBP-BCL10 (co-immunoprecipitation) (MBP-BCL10): interacted with BCL10
- growth of CB-SMOC-dependent cell lines (HBL1, TMD8 and SU-DHL4 cells) (DLBCL cell lines): selectively suppressed the growth of CB-SMOC-dependent cell lines
- GI50 (HBL1 cells [1]): 6.78 ± 3.7 µM
- intracellular level after the first 4 h (intracellular stability) (HBL1 cells [2]): maintained for a much longer time
- uptake by HBL1 cells and level within the first 4 h (HBL1 cells [2]): similarly taken up
- apoptosis of TMD8 and SU-DHL4 cells (TMD8 and SU-DHL4 cells [3]): induced apoptosis
- cell cycle profile of TMD8 and SU-DHL4 cells (TMD8 and SU-DHL4 cells [4]): cell cycle arrest
